In patent US7737305B2, “Sulfonic acid polyol compound, polyurethane resin, polyurethane resin for magnetic recording medium, and magnetic recording medium” (FUJIFILM Corporation, priority 2007, dated 2010):

Experiments:
[1] = Solubility test in cyclohexanone (residue after dissolution); format: physicochemical; conditions: 1 part by weight in 5 parts by weight of cyclohexanone, 40° C., 3 hours, ultrasonic waves, filtered
Method: (1-2) Solubility Test Method
1 part by weight of sulfonic acid (salt) diol compound was added to 5 parts by weight of cyclohexanone, and dissolution was carried out at 40° C. for 3 hours using ultrasonic waves. A solution thus obtained was filtered, and the presence/absence of a residue after dissolution was checked.

[2] = background statement; cited from earlier work

SMILES | presence/absence of a residue after dissolution [1] | solubility in organic solvents [2]
O=S(=O)([O-])CCN(CCO)CCO.[Li+] | a residue was found | 
O=S(=O)([O-])CCN(CCO)CCO.[K+] | a residue was found | 
O=S(=O)([O-])CCN(CCO)CCO.[Na+] | a residue was found | 
O=S(=O)(O)CCN(CCO)CCO [N,N-bis(2-hydroxyethyl)-2-aminoethanesulfonic acid] | a residue was found | does not dissolve in organic solvents
